The results in this text go back to ChEMBL document CHEMBL1145292, “Synthesis and activity of novel bile-acid conjugated glucocorticoid receptor antagonists” (Bioorg Med Chem Lett, 2006).

For data set [1], the target named is T1, Glucocorticoid receptor (Homo sapiens, UniProt P04150).
T1 sequence (P04150 whole entry): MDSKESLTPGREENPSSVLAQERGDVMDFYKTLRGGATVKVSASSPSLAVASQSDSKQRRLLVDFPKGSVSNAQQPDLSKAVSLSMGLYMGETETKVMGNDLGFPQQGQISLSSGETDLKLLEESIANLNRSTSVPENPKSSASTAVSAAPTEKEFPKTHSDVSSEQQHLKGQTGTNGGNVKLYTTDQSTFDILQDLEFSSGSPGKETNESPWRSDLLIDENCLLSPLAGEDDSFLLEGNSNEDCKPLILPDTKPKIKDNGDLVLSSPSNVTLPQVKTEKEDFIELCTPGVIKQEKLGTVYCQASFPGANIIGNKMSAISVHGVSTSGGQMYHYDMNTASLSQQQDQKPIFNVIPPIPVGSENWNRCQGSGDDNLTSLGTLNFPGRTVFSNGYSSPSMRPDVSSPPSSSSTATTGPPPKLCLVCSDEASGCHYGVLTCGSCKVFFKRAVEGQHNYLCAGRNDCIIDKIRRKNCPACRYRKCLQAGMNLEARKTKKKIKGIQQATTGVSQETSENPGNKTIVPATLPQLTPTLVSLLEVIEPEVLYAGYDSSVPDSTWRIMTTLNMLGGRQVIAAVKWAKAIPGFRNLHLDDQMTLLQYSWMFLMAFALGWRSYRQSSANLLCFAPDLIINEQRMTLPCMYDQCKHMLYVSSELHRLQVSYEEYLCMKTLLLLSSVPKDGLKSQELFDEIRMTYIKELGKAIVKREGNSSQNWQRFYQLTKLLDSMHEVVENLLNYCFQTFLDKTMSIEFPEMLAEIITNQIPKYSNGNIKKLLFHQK
As to the kind of experiment: Binding affinity to human GR.

The target in data set [2] is T1, Glucocorticoid receptor. As to the kind of experiment: Activity at GR expressed in CHO cells assessed as decrease in dexamethasone-stimulated alkaline phosphatase production by GRAF assay. The data set is classed as cell-based.
For data set [3], the system named is Rattus norvegicus. As to the kind of experiment: Inhibition of prednisilone-stimulated TAT production in Sprague-Dawley rat at 100 mg/kg, po. The data set is classed as functional.
Data set [4] deals with Rattus norvegicus. The data set is described as follows: Liver concentration in Sprague-Dawley rat after 7 hrs at 100 mg/kg, po. In kind it is ADME, organism-based. The arrangement: dose 100 mg/kg, route oral. Particulars: in vivo.
Data set [5] relates to Rattus norvegicus. As to the kind of experiment: Inhibition of prednisilone-induced lymphopenia in Sprague-Dawley rat at 100 mg/kg, po. In kind it is functional.
A short description of data set [6]: Plasma concentration in Sprague-Dawley rat after 7 hrs at 100 mg/kg, po. In kind it is ADME, organism-based. The arrangement: dose 100 mg/kg, route oral.
Data set [7] is described as follows: Stability in rat liver microsomes after 20 mins. In kind it is ADME, Microsome. Particulars: read-out: Stability.
In data set [8] the test system is Rattus norvegicus. The data set is described as follows: Inhibition of prednisilone-induced glycogen deposition in Sprague-Dawley rat at 100 mg/kg, po. In kind it is functional.
A short description of data set [9]: Protein binding in rat plasma. Particulars: read-out: PPB (converted). In kind it is ADME, cell-free.

Structures are written as SMILES.

In general, IC50 refers to the concentration at which inhibition is half-maximal. The inhibition in vivo is the relative decrease from the control value, in per cent.

Turning to `CC#C[C@]1(O)CC[C@H]2[C@@H]3CCC4=CC(=O)CCC4=C3[C@@H](c3ccc(Oc4ccccc4)cc3)C[C@@]21C`, the IC50 on Glucocorticoid receptor [1] was determined as 1.5 nM; at Glucocorticoid receptor [2], 18.8 nM.

`CC#C[C@]1(O)CC[C@H]2[C@@H]3CCC4=CC(=O)CCC4=C3[C@@H](c3c(OC)cc(OC)cc3OC)C[C@@]21C` yielded an IC50 on Glucocorticoid receptor [1] of 481 nM.

Consider `CC#C[C@]1(O)CC[C@H]2[C@@H]3CCC4=CC(=O)CCC4=C3[C@@H](c3ccc(OC)c(C)c3)C[C@@]21C`, for which the inhibition in vivo at 100 mg/kg was 97% in the data set with Rattus norvegicus [3] and 67% with Rattus norvegicus [5]. This compound registered a Drug uptake with Rattus norvegicus [4] of 18.1%. The IC50 at Glucocorticoid receptor [1] stood at 0.1 nM; on Glucocorticoid receptor [2], 1.1 nM. The compound further displayed a concentration at 7 h in data set [6] of 4.8 µM. For the same compound, the remaining at 20 min in [7] turned out to be 87%.

Consider `CC#C[C@]1(O)CC[C@H]2[C@@H]3CCC4=CC(=O)CCC4=C3[C@@H](c3ccc(OC)cc3C)C[C@@]21C`, for which the IC50 on Glucocorticoid receptor [1] amounted to 9 nM; at Glucocorticoid receptor [2], 32 nM.

As to `CC#C[C@]1(O)CC[C@H]2[C@@H]3CCC4=CC(=O)CCC4=C3[C@@H](c3ccc(OCCO[C@H]4CC[C@@]5(C)[C@@H](C4)C[C@@H](O)[C@@H]4[C@@H]5C[C@H](O)[C@]5(C)[C@@H]([C@H](C)CCC(=O)O)CC[C@@H]45)c(C)c3)C[C@@]21C`, the inhibition in vivo at 100 mg/kg with Rattus norvegicus [3] came to 31%; in the data set with Rattus norvegicus [5], 20%; in the data set with Rattus norvegicus [8] it was 0%. The same compound came in with a Drug uptake with Rattus norvegicus [4] of 22.2%. The IC50 on Glucocorticoid receptor [1] is 3.1 nM; on Glucocorticoid receptor [2], 30.7 nM. In addition, the concentration at 7 h in data set [6] was 4.5 µM. Moreover, in data set [7], the remaining at 20 min stood at 95%. For the same compound, the fraction unbound in data set [9] was 0.017.

On to `CC#C[C@]1(O)CC[C@H]2[C@@H]3CCC4=CC(=O)CCC4=C3[C@@H](c3cc(F)c(OC)cc3F)C[C@@]21C`, for which the results for the IC50 at Glucocorticoid receptor [1] and on Glucocorticoid receptor [2] were 3.2 nM and 15 nM, respectively.

For `CC#C[C@]1(O)CC[C@H]2[C@@H]3CCC4=CC(=O)CCC4=C3[C@@H](c3ccc(N(C)C)cc3)C[C@@]21C` [MIFEPRISTONE], the inhibition in vivo at 100 mg/kg in the data set with Rattus norvegicus [3] amounted to 101%; in the data set on Rattus norvegicus [5], 104%; in the data set on Rattus norvegicus [8] it was 77%. Further, the Drug uptake in the data set with Rattus norvegicus [4] is 26.5%. For the same compound, the concentration at 7 h in [6] is 3.9 µM. In data set [7], the remaining at 20 min stood at 70%. The fraction unbound in data set [9] was 0.044.

As to `CC#C[C@]1(O)CC[C@H]2[C@@H]3CCC4=CC(=O)CCC4=C3[C@@H](c3ccc(OC)cc3)C[C@@]21C`, the IC50 came out at 0.9 nM on Glucocorticoid receptor [1] and 7.6 nM at Glucocorticoid receptor [2].

As for `CC#C[C@]1(O)CC[C@H]2[C@@H]3CCC4=CC(=O)CCC4=C3[C@@H](c3cc(C)c(OCCO[C@H]4CC[C@@]5(C)[C@@H](C4)C[C@@H](O)[C@@H]4[C@@H]5C[C@H](O)[C@]5(C)[C@@H]([C@H](C)CCC(=O)O)CC[C@@H]45)c(C)c3)C[C@@]21C`, the figures for the inhibition in vivo at 100 mg/kg in the data set with Rattus norvegicus [3], in the data set on Rattus norvegicus [5] and in the data set on Rattus norvegicus [8] were 0%, 0% and 12%, respectively. Besides, the IC50 came to 4.9 nM on Glucocorticoid receptor [1] and 200 nM on Glucocorticoid receptor [2].

Take `CC#C[C@]1(O)CC[C@H]2[C@@H]3CCC4=CC(=O)CCC4=C3[C@@H](c3ccc(O)c(C)c3)C[C@@]21C`: the IC50 was determined as 4.5 nM at Glucocorticoid receptor [1] and 28.6 nM on Glucocorticoid receptor [2].

`CC#C[C@]1(O)CC[C@H]2[C@@H]3CCC4=CC(=O)CCC4=C3[C@@H](c3cc(C)c(OC)c(C)c3)C[C@@]21C`: the IC50 stood at 0.4 nM on Glucocorticoid receptor [1] and 2.8 nM at Glucocorticoid receptor [2].

In the case of `CC#C[C@]1(O)CC[C@H]2[C@@H]3CCC4=CC(=O)CCC4=C3[C@@H](c3ccc(SC)cc3)C[C@@]21C`, the IC50 on Glucocorticoid receptor [1] came out at 0.6 nM; on Glucocorticoid receptor [2], 1.8 nM.

For the compound `C=CCOc1c(C)cc([C@H]2C[C@@]3(C)[C@@H](CC[C@@]3(O)C#CC)[C@@H]3CCC4=CC(=O)CCC4=C32)cc1Cl`, the IC50 on Glucocorticoid receptor [1] amounted to 1.5 nM; on Glucocorticoid receptor [2], 20.9 nM.

`CC#C[C@]1(O)CC[C@H]2[C@@H]3CCC4=CC(=O)CCC4=C3[C@@H](c3ccc(-c4ccc(OCCO[C@H]5CC[C@@]6(C)[C@@H](C5)C[C@@H](O)[C@@H]5[C@@H]6C[C@H](O)[C@]6(C)[C@@H]([C@H](C)CCC(=O)O)CC[C@@H]56)cc4)cc3)C[C@@]21C`: the inhibition in vivo at 100 mg/kg in the data set with Rattus norvegicus [3] worked out at 44%; in the data set with Rattus norvegicus [5], 40%; in the data set with Rattus norvegicus [8], 51%. Also, the IC50 came to 2.5 nM at Glucocorticoid receptor [1] and 23.5 nM on Glucocorticoid receptor [2]. Besides, the remaining at 20 min in [7] was determined as 100%.

On to `C=CCOc1ccc([C@H]2C[C@@]3(C)[C@@H](CC[C@@]3(O)C#CC)[C@@H]3CCC4=CC(=O)CCC4=C32)cc1Cl`, for which the figures for the IC50 on Glucocorticoid receptor [1] and at Glucocorticoid receptor [2] were 0.4 nM and 4.7 nM, respectively.

As to `CC#C[C@]1(O)CC[C@H]2[C@@H]3CCC4=CC(=O)CCC4=C3[C@@H](c3ccc(N(C)CCO[C@H]4CC[C@@]5(C)[C@@H](C4)C[C@@H](O)[C@@H]4[C@@H]5C[C@H](O)[C@]5(C)[C@@H]([C@H](C)CCC(=O)O)CC[C@@H]45)cc3)C[C@@]21C`, the inhibition in vivo at 100 mg/kg in the data set on Rattus norvegicus [3] turned out to be 72%; in the data set with Rattus norvegicus [5], 9%; in the data set with Rattus norvegicus [8], 86%. This compound returned a Drug uptake in the data set on Rattus norvegicus [4] of 26.5%. Besides, the IC50 on Glucocorticoid receptor [1] worked out at 1.2 nM; at Glucocorticoid receptor [2], 10 nM. The same compound registered a concentration at 7 h in data set [6] of 4.5 µM. Also, in [7], the remaining at 20 min was determined as 98%. Also, the fraction unbound in [9] is 0.041.

For the compound `CC#C[C@]1(O)CC[C@H]2[C@@H]3CCC4=CC(=O)CCC4=C3[C@@H](c3c(F)cc(OC)cc3OC)C[C@@]21C`, the IC50 at Glucocorticoid receptor [1] stood at 6.1 nM; on Glucocorticoid receptor [2] it was 43 nM.

Consider `CC#C[C@]1(O)CC[C@H]2[C@@H]3CCC4=CC(=O)CCC4=C3[C@@H](c3ccc(-c4ccc(OC)cc4)cc3)C[C@@]21C`, for which the results for the IC50 on Glucocorticoid receptor [1] and at Glucocorticoid receptor [2] were 0.7 nM and 4.2 nM, respectively. Besides, the remaining at 20 min in data set [7] came out at 96%.

On to `CC#C[C@]1(O)CC[C@H]2[C@@H]3CCC4=CC(=O)CCC4=C3[C@@H](c3c(F)cc(OC)cc3F)C[C@@]21C`, for which the values for the IC50 at Glucocorticoid receptor [1] and at Glucocorticoid receptor [2] were 0.7 nM and 10.1 nM, respectively.

Consider `CC#C[C@]1(O)CC[C@H]2[C@@H]3CCC4=CC(=O)CCC4=C3[C@@H](c3cc(OC)c(OC)c(OC)c3)C[C@@]21C`, for which, on Glucocorticoid receptor [1], the IC50 was 60.7 nM.
